Reference: ChEMBL document CHEMBL3286106, “Design and synthesis of 6-oxo-1,4,5,6-tetrahydropyrimidine-5-carboxylate derivatives as neuraminidase inhibitors” (Eur J Med Chem, 2014)

Key:
[1] = biological target: Neuraminidase (Influenza A virus, UniProt B4URF0); assay: Inhibition of Influenza A H1N1 virus neuraminidase after 1 hr by spectrofluorimetry using 2-(4-meythylumbelliferyl)-alpha-D-acetylneuramic acid as substrate
[2] = biological target: Neuraminidase (Influenza A virus) (UniProt B4URF0); assay: Inhibition of Influenza A H1N1 virus neuraminidase at 200 uM after 1 hr by spectrofluorimetry using 2-(4-meythylumbelliferyl)-alpha-D-acetylneuramic acid as substrate
Chain of Neuraminidase (Influenza A virus) (B4URF0 as listed by the source): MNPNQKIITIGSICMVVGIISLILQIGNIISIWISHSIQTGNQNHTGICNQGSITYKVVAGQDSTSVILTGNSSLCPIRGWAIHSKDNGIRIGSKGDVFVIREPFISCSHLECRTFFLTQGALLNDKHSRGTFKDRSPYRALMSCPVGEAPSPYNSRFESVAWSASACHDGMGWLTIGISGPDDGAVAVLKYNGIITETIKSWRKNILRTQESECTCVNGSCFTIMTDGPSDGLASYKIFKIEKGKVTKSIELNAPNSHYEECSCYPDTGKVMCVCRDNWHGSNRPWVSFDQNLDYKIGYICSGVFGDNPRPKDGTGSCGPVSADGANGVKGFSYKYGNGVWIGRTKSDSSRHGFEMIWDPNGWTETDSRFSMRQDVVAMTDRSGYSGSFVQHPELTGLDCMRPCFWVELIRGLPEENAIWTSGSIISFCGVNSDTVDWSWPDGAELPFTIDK

[3] = biological target: Neuraminidase (Influenza A virus) (UniProt B4URF0); assay: Inhibition of Influenza A H1N1 virus neuraminidase at 40 uM after 1 hr by spectrofluorimetry using 2-(4-meythylumbelliferyl)-alpha-D-acetylneuramic acid as substrate
[4] = biological target: Neuraminidase (Influenza A virus) (UniProt B4URF0); assay: Inhibition of Influenza A H1N1 virus neuraminidase at 1.6 uM after 1 hr by spectrofluorimetry using 2-(4-meythylumbelliferyl)-alpha-D-acetylneuramic acid as substrate
[5] = biological target: Neuraminidase (Influenza A virus) (UniProt B4URF0); assay: Inhibition of Influenza A H1N1 virus neuraminidase at 8 uM after 1 hr by spectrofluorimetry using 2-(4-meythylumbelliferyl)-alpha-D-acetylneuramic acid as substrate
[6] = Cytotoxicity against human L02 cells after 48 hrs by MTT assay; format: cell-based; conditions: L02, 48 h
[7] = biological target: Neuraminidase (Influenza A virus) (UniProt B4URF0); assay: Inhibition of Influenza A H1N1 virus neuraminidase at 20 nM after 1 hr by spectrofluorimetry using 2-(4-meythylumbelliferyl)-alpha-D-acetylneuramic acid as substrate
[8] = biological target: Neuraminidase (Influenza A virus) (UniProt B4URF0); assay: Inhibition of Influenza A H1N1 virus neuraminidase at 4 nM after 1 hr by spectrofluorimetry using 2-(4-meythylumbelliferyl)-alpha-D-acetylneuramic acid as substrate
[9] = biological target: Neuraminidase (Influenza A virus) (UniProt B4URF0); assay: Inhibition of Influenza A H1N1 virus neuraminidase at 0.16 nM after 1 hr by spectrofluorimetry using 2-(4-meythylumbelliferyl)-alpha-D-acetylneuramic acid as substrate
[10] = biological target: Neuraminidase (Influenza A virus) (UniProt B4URF0); assay: Inhibition of Influenza A H1N1 virus neuraminidase at 0.8 nM after 1 hr by spectrofluorimetry using 2-(4-meythylumbelliferyl)-alpha-D-acetylneuramic acid as substrate
[11] = biological target: Neuraminidase (Influenza A virus) (UniProt B4URF0); assay: Inhibition of Influenza A H1N1 virus neuraminidase at 100 nM after 1 hr by spectrofluorimetry using 2-(4-meythylumbelliferyl)-alpha-D-acetylneuramic acid as substrate

Chain of Neuraminidase (B4URF0 whole entry): as the sequence (B4URF0 as listed by the source) above

CCOC(=O)C1C(=O)NC(NC(C)=O)=NC1C(C)C (centres undefined)
IC50 [1]: > 200 µM

CCOC(=O)C1C(=O)NC(N)=NC1c1ccc(C)cc1 (centres undefined)
IC50 [1]: > 200 µM

CCOC(=O)C1C(=O)NC(NC(C)=O)=NC1c1ccccc1Cl (centres undefined)
IC50 [1]: 36.7 µM

CCOC(=O)C1C(=O)NC(N)=NC1c1ccc(Br)cc1F (centres undefined)
IC50 [1]: 121 µM

CCOC(=O)C1C(=O)NC(NC(C)=O)=NC1c1ccc(F)cc1 (centres undefined)
IC50 [1]: 96.5 µM

CCOC(=O)C1C(=O)NC(N)=NC1c1ccco1 (centres undefined)
IC50 [1]: > 200 µM

CCOC(=O)C1C(=O)NC(N)=NC1c1ccccc1[N+](=O)[O-] (centres undefined)
IC50 [1]: 75.7 µM

CCOC(=O)C1C(=O)NC(N)=NC1c1ccc(F)cc1 (centres undefined)
IC50 [1]: 145 µM

CCOC(=O)C1C(=O)NC(N)=NC1c1ccc(N(C)C)cc1 (centres undefined)
IC50 [1]: > 200 µM

CCOC(=O)C1C(=O)NC(N)=NC1c1ccc(Cl)cc1Cl (centres undefined)
IC50 [1]: 120 µM

CCOC(=O)C1C(=O)NC(NC(=O)C(F)(F)F)=NC1c1ccc(Br)cc1 (centres undefined)
IC50 [1]: 69.8 µM

CCOC(=O)C1C(=O)NC(N)=NC1c1ccc(Br)cc1 (centres undefined)
IC50 [1]: 125 µM

CCOC(=O)C1C(=O)NC(NC(C)=O)=NC1c1ccc([N+](=O)[O-])cc1 (centres undefined)
IC50 [1]: 145 µM

CCOC(=O)C1C(=O)NC(NC(C)=O)=NC1c1ccc(Br)cc1 (centres undefined)
IC50 [1]: 71.3 µM

CCOC(=O)C1C(=O)NC(N)=NC1c1ccccc1Cl (centres undefined)
IC50 [1]: 86.9 µM

CCOC(=O)C1C(=O)NC(NC(C)=O)=NC1c1ccccc1[N+](=O)[O-] (centres undefined)
inhibition [2]: 82%
inhibition [3]: 53%
inhibition [4]: 8%
inhibition [5]: 25%
IC50 [1]: 17.6 µM
IC50 [6]: > 10000 µM

CCOC(=O)C1C(=O)NC(NC(C)=O)=NC1c1ccc(OC)cc1 (centres undefined)
IC50 [1]: 166 µM

CCOC(=O)C1C(=O)NC(NC(C)=O)=NC1c1ccc(C)cc1 (centres undefined)
IC50 [1]: 165 µM

CCOC(=O)C1C(=O)NC(NC(C)=O)=NC1c1ccccc1 (centres undefined)
IC50 [1]: 57.5 µM

CCOC(=O)C1C(=O)NC(N)=NC1c1ccc(OC)c(OC)c1 (centres undefined)
IC50 [1]: > 200 µM

CCOC(=O)C1C(=O)NC(N)=NC1c1ccc(Cl)cc1 (centres undefined)
IC50 [1]: 110 µM

CCOC(=O)C1C(=O)NC(NC(C)=O)=NC1c1ccc(OC)c(OC)c1 (centres undefined)
IC50 [1]: > 200 µM

CCOC(=O)C1C(=O)NC(NC(C)=O)=NC1c1ccc(Br)cc1F (centres undefined)
inhibition [2]: 86%
inhibition [3]: 52%
inhibition [4]: 7%
inhibition [5]: 24%
IC50 [1]: 29.7 µM
IC50 [6]: > 10000 µM

CCOC(=O)C1C(=O)NC(N)=NC1c1ccc(OC)cc1 (centres undefined)
IC50 [1]: > 200 µM

CCOC(=O)C1C(=O)NC(N)=NC1c1ccccc1F (centres undefined)
IC50 [1]: 89 µM

CCOC(=O)C1C(=O)NC(NC(=O)CC)=NC1c1ccc(Br)cc1 (centres undefined)
IC50 [1]: 106 µM

CCOC(=O)C1C(=O)NC(N)=NC1c1ccc([N+](=O)[O-])cc1 (centres undefined)
IC50 [1]: 189 µM

CCOC(=O)C1C(=O)NC(NC(C)=O)=NC1c1ccc(Cl)cc1Cl (centres undefined)
inhibition [2]: 94%
inhibition [3]: 61%
inhibition [4]: 8%
inhibition [5]: 38%
IC50 [1]: 28.5 µM
IC50 [6]: > 10000 µM

CCOC(=O)C1C(=O)NC(NC(C)=O)=NC1c1ccc(N(C)C)cc1 (centres undefined)
IC50 [1]: 139 µM

CCOC(=O)C1C(=O)NC(N)=NC1c1ccccc1 (centres undefined)
IC50 [1]: 129 µM

CCOC(=O)C1C(=O)NC(N)=NC1C(C)C (centres undefined)
IC50 [1]: > 200 µM

CCOC(=O)C1C(=O)NC(NC(C)=O)=NC1c1ccc(Cl)cc1 (centres undefined)
IC50 [1]: 89.6 µM

CCOC(=O)C1C(=O)NC(NC(C)=O)=NC1c1ccccc1F (centres undefined)
IC50 [1]: 46.5 µM

CCOC(=O)C1C(=O)NC(NC(C)=O)=NC1c1ccco1 (centres undefined)
IC50 [1]: > 200 µM

CCOC(=O)C1=C[C@@H](OC(CC)CC)[C@H](NC(C)=O)[C@@H](N)C1
inhibition [7]: 97%
inhibition [8]: 84%
inhibition [9]: 17%
inhibition [10]: 51%
inhibition [11]: 99%
